{"source": "patent US7122335B1", "about": "“Compounds and methods to enhance rAAV transduction” (priority 1999, dated 2006)", "key": {"Hela cells [1]": {"system": "Hela cells", "test": "Cy3-labeled rAAV binding to Hela cells at 4° C., heparin competition", "format": "cell-based, human", "details": "free heparin at the time of infection", "procedure": "FIGS. 18A–D. Cy3-labeled rAAV infection in Hela cells. Hela cells were infected with Cy3-labeled AV.GFP3ori at an MOI of 500 particles/cells for 90 minutes at 4° C. in the absence of serum. Cells were then washed and either directly fixed in 2% paraformaldehyde for 10 minutes or incubated at 37° C. for an additional 60 or 120 minutes prior to fixation. Prior to viral infections, cells were incubated for 30 minutes in 1 μM 5-chloromethylfluorescein diacetate (Cell Tracker™ Green CMFDA, Molecular Probe) to allow for visualization of cells and labeled virus in dual fluorescent channel images. Representative confocal image of cells infected for 90 minutes at 4° C. followed by a 60 and 120 minute incubation at 37° C. are shown for both Cy3 and dual Cy3/FITC channels (FIG. 18A). The nuclei in dual channel images are marked by Nu. The confocal images shown were merged from three 0.5 μm layers taken within the central region of the cell. FIG. 18B depicts non-confocal images with Nomarski and Cy3 channels for cells infected for 90 minutes at 4° C. […]\nTo assess endocytosis and nuclear trafficking of AAV following treatment with various agents which may modulate these processes, fluorescently labeled virus was prepared. […] Several experimental conditions evaluated crosslinking reactions with dye:rAAV particle ratios of 0.2, 1, 5, 25, 100, and 200. […]"}, "Hela cells [2]": {"system": "Hela cells", "details": "previously shown; cited from earlier work"}}}
{"substance": "heparin", "values": [{"measurement": "viral binding of Cy3-labeled rAAV", "setting": "Hela cells [1]", "value": "inhibited in a dose-dependent fashion"}, {"measurement": "rAAV transduction in Hela cells", "setting": "Hela cells [2]", "value": "inhibit most of rAAV transduction"}]}
